Experimental data: patent US20040087842A1, “Fluorescent probes for saccharrides” (priority 2002, published 2004)
Read-outs that look alike come from different tables or passages of the source. One block for each molecule: values may come before it.

What was measured:
[1] = Titration curves against pH (pKa of the boronic acid group) with and without sugar; type: physicochemical; conditions: for pKa: aqueous buffer solutions with methanol
Description: Titration curves against pH were measured in buffer solutions: acetate buffer for pH 4.0-5.5, phosphate buffer for pH 6.0-9.0 and carbonate buffer for pH 10,0-11.0. Titration curves were fitted and pKa (pKa=−log Ka) values were obtained using the equation: [formula]
(§1) where Iacid and Ibase are the intensity limits in the acid and basic region, respectively. Titration curves against sugar were fitted and dissociation constant (KD) values were obtained using the equation: [formula]
(§2) where Io and If are the initial (no sugar) and final (plateau) intensities of the titration curves. […]

[2] = Fluorescence titration curves against sugar (dissociation constant), D-galactose; type: binding
Description: (§3) Stilbene-4-boronic acid (STBA), 4′-cyanostilbene-4-boronic acid (CSTBA), 4′-methoxystilbene-4-boronic acid (MSTBA) and 4′-(dimethylamino)stilbene-4-boronic acid (DSTBA) were synthesized by the Wittig reaction between the para-substituted benzaldehydes and the para-boronic acid derivative of the benzyltriphenylphosphonium bromide. This latter was synthesized by the reaction of the p-bromomethylphenylboronic acid with triphenylphosphine in toluene. […] Absorption spectrawere recorded with a Cary 50 UV-Vis spectrophotometer from Varian. Emission spectra were recorded with a Varian Eclipse spectrofluorometer from Varian. In both cases, the measurements were taken at room temperature in a 1 cm quartz cuvette. For all measurements, the absorbances of the solutions were about 0.1 corresponding to a concentration range of 2-3×10^−6 M of the fluorophore. Fluorescence quantum yields were measured against p-quaterphenyl in cyclohexane (ΦF=0.89) for trans-stilbene (ST) and STBA, anthracene in cyclohexane (φF=0.36) for CSTBA and MSTBA and Quinine sulfate in 1N sulfuric acid (ΦF=0.577) for DSTBA.
as §1
(§4) where Io and If are the initial (no sugar) and final (plateau) intensities of the titration curves. All solutions in water and buffer contained also 33.3% […] methanol to avoid any problem due to the aggregation.

[3] = Fluorescence titration curves against sugar (dissociation constant), D-glucose; type: binding
Description: as §3, §1, §2

[4] = Fluorescence titration curves against sugar (dissociation constant), D-fructose; type: binding; conditions: compounds 4 and 5; phosphate buffer pH 8.0/methanol 1:2 (v/v)
[5] = Emission intensity change of STBA after addition of sugars; conditions: phosphate buffer pH 8.0/methanol 2:1 (v/v), λex=310 nm
Text: A decrease of the fluorescence emission is observed after the addition of sugar. The overall decrease is relatively weak, about 15%. Since the same intensity change is observed by increasing the pH, this change is attributed to the formation of the anionic form of the boronic acid group. […] The decrease of this pKa for the complex with sugar is also a general observation for this chelator group. […] At pH 8.0, STBA is present mostly in its neutral form. After the addition of sugar, the complex exists under the anionic form due to its lower pKa. This change from the neutral to the anionic form is at the origin of the intensity changes observed for STBA and the other complexes presented in this study. […]
Stilbene-4-boronic acid (STBA), 4′-cyanostilbene-4-boronic acid (CSTBA), 4′-methoxystilbene-4-boronic acid (MSTBA) and 4′-(dimethylamino)stilbene-4-boronic acid (DSTBA) were synthesized by the Wittig reaction between the para-substituted benzaldehydes and the para-boronic acid derivative of the benzyltriphenylphosphonium bromide. […] Absorption spectrawere recorded with a Cary 50 UV-Vis spectrophotometer from Varian. Emission spectra were recorded with a Varian Eclipse spectrofluorometer from Varian. […] For all measurements, the absorbances of the solutions were about 0.1 corresponding to a concentration range of 2-3×10^−6 M of the fluorophore. […]

[6] = Fluorescence titration curves against sugar (dissociation constant), D-fructose; type: binding
Description: as §3, §1, §4

[7] = cited from earlier work
[8] = cited from earlier work; for decrease of emission intensity after addition of glucose: pH 7.4, literature
[9] = literature value; read-out: KD D-galactose; cited from earlier work
[10] = Solubility observation during titrations; type: physicochemical; conditions: methanol/water mixture
Text: (§5) As discussed in the literature, the change is the intensity is attributed to the removal of the PET quenching due to the interaction between the boron and nitrogen atoms following the binding with glucose. In attempt to see the possible interference from macrobiosystems, titration curves have also been measured in presence of BSA and two detergents, one with a […] charged head group (HDTBr) and the other with a […] charged head group (SDS). BSA has a little effect on the titration curve of 7 and no effect for compound 8. The effect of BSA one compound 7 could be the result of an interaction between these two compounds. But, as the measurements are taken in a mixture of methanol and water, aggregation could not be neglect. […] To obtain a reproducible titration curve, vigorous stirring and time must be applied. In the presence of micelles, a complete inhibition of the intensity change is observed. […] For compound, the dissociation constant is in the millimolar range which is characteristic with the boronic acid group. For compound 8, this dissociation constant goes down to submillimolar range. This is due to the ability of both boronic acid group present on compound 8 to bind one molecule of glucose.

[11] = Stability and dissociation constants of 7 and 8 for D-glucose from steady-state and frequency-domain fluorescence; type: binding; conditions: 1:1 complex with D-glucose, methanol/phosphate buffer pH 7.7 (1:3)
Text: as §5
Titration curves obtain with the mean lifetime and with the phase angle and modulation are shown in FIGS. 24 and 25 respectively for both compounds. […] This is due to the fact that the short lifetime component becomes less important and gradually the decay become more monoexponential with the addition of glucose. For compound 8, the combination of larger mean lifetime change and decrease of the short lifetime component result in a larger change in the phase angle and modulation with the presence of glucose. The apparent association constants obtained with the mean lifetime, phase angle and modulation show a decrease of an order in comparison with the KD obtained with the steady-state intensity change. […] This is due to the more important contribution of the complex (probe with analyte) on the lifetime because of the higher quantum yield and longer lifetime of the latter.
Steady-state fluorescence measurements were performed in 1 cm quartz cuvette in an ISS spectrofluorometer.
Frequency-domain (FD) measurements were performed using instrumentation described previously (65). The Domain (TD measurements can also be applied to the fluorescent compounds and methods of the present invention, as readily recognized by those of ordinary skill in the art. For Example 4, an amplitude modulated UV-LED was use as light source given and peak intensity centered around 370 nm. Emission was observed through a 415 nm cut-off and a 420 nm interference filter. The FD or TD intensity decay data were analyzed by nonlinear least squares in terms of the multiexponential model: [formula]
The values of (τ) are thought to be proportional to the quantum yield of the sample. […] Stability and association constants are determined according to the method described in the literature.

[12] = Yoon et al., cited from earlier work
[13] = DSTBA, from reference 3; read-out: KD galactose; cited from earlier work
[14] = DSTBA, from reference 3; read-out: KD glucose; cited from earlier work
[15] = DSTBA, from reference 3; read-out: KD fructose; cited from earlier work
[16] = compounds 4 and 5, 66.6% methanol, 50 mM fructose, read-out: pKa fructose (50 mM)
[17] = compounds 4 and 5, 66.6% methanol, 170 mM glucose, read-out: pKa glucose (170 mM)
[18] = compounds 4 and 5, buffer with 66.6% (v/v) methanol, read-out: pKa no sugar
[19] = compounds 4 and 5, phosphate buffer pH 8.0/methanol 1:2 (v/v), read-out: KD galactose
[20] = compounds 4 and 5, phosphate buffer pH 8.0/methanol 1:2 (v/v), read-out: KD glucose
[21] = stilbenes, 33.3% methanol, 50 mM D-fructose, read-out: pKa +D-fructose (50 mM)
[22] = stilbenes, 33.3% methanol, 50 mM D-glucose, read-out: pKa +D-glucose (50 mM)
[23] = stilbenes, solution contained 33.3% methanol, no sugar, read-out: pKa Alone
[24] = stilbenes, pH 8.0, 33.3% methanol, read-out: KD D-galactose
[25] = stilbenes, pH 8.0, 33.3% methanol, read-out: KD D-glucose
[26] = stilbenes, pH 8.0, 33.3% methanol, read-out: KD D-fructose
[27] = 30 MHz, read-out: KD, Modulation
[28] = 30 MHz, read-out: KD, Phase Angle
[29] = read-out: KD, Steady State Intensity
[30] = compound 6, pH 7.0, phosphate buffer/methanol 2:1

pKa [1, 16]: 6.1 ± 0.05
pKa [1, 17]: 6.86 ± 0.02
pKa [1, 18]: 8.75
Kd [2, 19]: 5.4 ± 0.4 mM
Kd [3, 20]: 15 ± 1 mM
Kd [4]: 840 ± 30 µM
SMILES: CN(C)c1ccc(/C=C/C=C/C=C/c2ccc(B(O)O)cc2)cc1 [compound 5, 1-(p-dimethylaminophenyl)-6-(p-boronophenyl)-hexa-1,3,5-triene]

pKa [1, 21]: 6.4
pKa [1, 22]: 7.63
pKa [1, 23]: 8.86
Kd [2, 24]: 6 mM
Kd [3, 25]: 11 mM
Kd [6, 26]: 3.4 mM
SMILES: OB(O)c1ccc(/C=C/c2ccccc2)cc1 [STBA, stilbene-4-boronic acid]
overall decrease of the fluorescence emission after addition of sugar [5]: about 15%

SMILES: OB(O)c1ccccc1 [phenylboronic acid]
Kd ([7]; literature value, read-out: KD D-fructose): 200 µM
Kd ([8]; literature value, read-out: KD D-glucose): 9.1 mM
Kd [9]: 3.6 mM

pKa [1, 21]: 6.36
pKa [1, 22]: 7.88
pKa [1, 23]: 8.58
Kd [2, 24]: 26 mM
Kd [3, 25]: 43 mM
Kd [6, 26]: 1 mM
SMILES: COc1ccc(/C=C/c2ccc(B(O)O)cc2)cc1 [MSTBA, 4′-methoxystilbene-4-boronic acid]

solubility [10]: relatively low solubility
Log KS, Mean Lifetime [11]: 2.5 (0.994:4)
Log KS, Steady State Intensity [11]: 1.7 (0.993:7)
Log KS, Modulation ([11]; 30 MHz): 2.5 (0.999:6)
Log KS, Phase Angle ([11]; 30 MHz): 2.2 (0.993:5)
Kd [11, 27]: 3.4 mM
Kd [11, 28]: 6.1 mM
Kd ([11]; read-out: KD, Mean Lifetime): 3.2 mM
Kd [11, 29]: 19.3 mM
SMILES: CN(Cc1ccccc1B(O)O)Cc1c2ccccc2cc2ccccc12 [compound 7, 9-[[N-Methyl-N-(o-boronobenzyl)amino]methyl]anthracene]

SMILES: OB(O)c1ccc2cc3ccccc3cc2c1 [anthrylboronic acid, anthryl-2-boronic acid]
decrease of emission intensity after addition of fructose ([7]; pH 7.4, literature): 30%
decrease of emission intensity after addition of glucose [8]: about 10%
decrease of emission intensity after addition of glucose ([8]; listed as anthryl-2-boronic acid): 10%
pKa of complex with fructose ([12]; saturated fructose solution): 5.9
pKa ([12]; uncomplexed): 8.8

pKa [1, 21]: 6.61
pKa [1, 22]: 8.34
pKa [1, 23]: 9.14
Kd [2, 24]: 49 mM
Kd [3, 25]: 98 mM
Kd [6, 26]: 2.5 mM
SMILES: CN(C)c1ccc(/C=C/c2ccc(B(O)O)cc2)cc1 [DSTBA, 4′-(dimethylamino)stilbene-4-boronic acid]
Kd [13]: 49 mM
Kd [14]: 98 mM
Kd [15]: 2.5 mM

pKa [1, 21]: 5.84
pKa [1, 22]: 7.3
pKa [1, 23]: 8.17
Kd [2, 24]: 12.5 mM
Kd [3, 25]: 18.3 mM
Kd ([6]; pH 7.0, read-out: dissociation constant for D-fructose): 3.22 mM
Kd ([6]; pH 7.5, read-out: dissociation constant for D-fructose): 1.19 mM
Kd [6, 26]: 0.65 mM
SMILES: N#Cc1ccc(/C=C/c2ccc(B(O)O)cc2)cc1 [CSTBA, 4′-cyanostilbene-4-boronic acid]

pKa in presence of fructose ([1]; compound 6): 5.6
pKa in presence of glucose ([1]; compound 6): 6.5
pKa in absence of sugar ([1]; compound 6, λex=350 nm): 7.8
Kd ([2]; compound 6, phosphate buffer/methanol (2:1 v/v) at pH 7.0, read-out: Dissociation constant (KD) for galactose): 14 ± 1 mM
Kd ([3]; compound 6, phosphate buffer/methanol (2:1 v/v) at pH 7.0, read-out: Dissociation constant (KD) for glucose): 37 ± 3 mM
Kd ([6]; compound 6, phosphate buffer/methanol (2:1 v/v) at pH 7.0, read-out: Dissociation constant (KD) for fructose): 1.9 ± 0.1 mM
SMILES: CN(C)c1ccc(-c2cnc(-c3ccc(B(O)O)cc3)o2)cc1 [compound 6, 5-(4′-Dimethylaminophenyl)-2-(4″-boronophenyl)oxazol]
increase of the emission intensity in presence of galactose [2, 30]: about 3 fold
increase of the emission intensity in presence of glucose [3, 30]: about 3 fold
increase of the emission intensity in presence of fructose [6, 30]: about 5 fold

solubility [10]: relatively low solubility
Log KS, Mean Lifetime [11]: 4.4 (0.992:11)
Log KS, Steady State Intensity [11]: 3.1 (0.998:12)
Log KS, Modulation ([11]; 30 MHz): 4.1 (0.995:7)
Log KS, Phase Angle ([11]; 30 MHz): 4.5 (0.996:10)
Kd [11, 27]: 0.079 mM
Kd [11, 28]: 0.032 mM
Kd ([11]; read-out: KD, Mean Lifetime): 0.04 mM
Kd [11, 29]: 0.79 mM
SMILES: CN(Cc1ccccc1B(O)O)Cc1c2ccccc2c(CN(C)Cc2ccccc2B(O)O)c2ccccc12 [compound 8, 9,10-Bis[[N-methyl-N-(o-boronobenzyl)amino]methyl]anthracene]

pKa [1, 16]: 6.19 ± 0.04
pKa [1, 17]: 6.97 ± 0.02
pKa [1, 18]: 8.9
Kd [2, 19]: 5.9 ± 0.6 mM
Kd [3, 20]: 17 ± 2 mM
Kd [4]: 1120 ± 50 µM
SMILES: CN(C)c1ccc(/C=C/C=C/c2ccc(B(O)O)cc2)cc1 [compound 4, 1-(p-Dimethylaminophenyl)-4-(p-boronophenyl)-buta-1,3-diene]
